Test results as given in patent US11759461B2, “Small molecule inhibitors of cancer stem cells and mesenchymal cancer types” (The Scripps Research Institute, priority 2017, dated 2023).

Test system: FOXC2-expressing HMLER cells
Assay: Cell Titer Glo viability of FOXC2-HMLER cells (high throughput screen and 10-point response)
Assay type: cell-based
Conditions: Homo sapiens; scored relative to parent compound 2; 72 hours; read-out: Activity Score, inhibition of FOXC2-expressing HMLER cells by Formula II compounds
Protocol: For high throughput screening, FOXC2-HMLER and HMLER cells were plated at 10^3 cells per well in white 384-well plates in 50 μL of MEGM medium (Lonza). Cells were allowed to attach for one hour before compound was transferred to each well as a DMSO solution using a 100 nL pintool head affixed to a PerkinElmer FX instrument. After 72-hour incubation, 30 μL of a Cell Titer Glo solution (diluted 1:6 in water, Promega) was dispensed into each well and luminance values were recorded using an Envision plate reader. […] All other miniaturized, selective viability experiments were performed as above using the indicated growth medium.
More specifically, in the high throughput screening assay above, each cell line was plated at 1,000 cells per well in 384-well plates, treated for 72 hours with 2 μM of test compound, and the viability of each line was determined in parallel by Cell Titer Glo (Promega) luminance measurements.

For CCc1ccc(NCc2cc3ccc(OC)cc3n(CC(=O)NCc3ccc(C)cc3)c2=O)cc1 [Compound 2DQ], the IC50 was greater than 20 µM.
In the case of COc1ccc2cc(CNc3ccc(C)cc3)c(=O)n(CC(=O)Nc3ccc(C)c(Cl)c3)c2c1 [Compound 2DR], the IC50 is reported as greater than 20 µM.
COc1ccc2cc(CNc3ccccc3)c(=O)n(CC(=O)Nc3ccc(C(C)C)cc3)c2c1 [Compound 2DS] gave an IC50 greater than 20 µM.
Compound CCc1ccc(NCc2cc3ccc(OC)cc3n(CC(=O)Nc3ccc(C)cc3)c2=O)cc1 [Compound 2DT] has an IC50 greater than 20 µM.
Compound COc1ccccc1NC(=O)Cn1c(=O)c(CNc2ccccc2)cc2ccc(C)cc21 [Compound 2DU] has an IC50 greater than 20 µM.
CCc1ccc(NCc2cc3ccc(OC)cc3n(CC(=O)Nc3ccccc3OC)c2=O)cc1 [Compound 2DV] showed an IC50 greater than 20 µM.
CCc1ccc(NCc2cc3cc4c(cc3n(CC(=O)Nc3ccccc3)c2=O)OCCO4)cc1 [Compound 2DW] gave an IC50 greater than 20 µM.
Work on COc1cccc(NC(=O)Cn2c(=O)c(CNc3ccccc3)cc3ccc(OC)cc32)c1 [Compound 2DX] yielded an IC50 greater than 20 µM.
COc1ccc(NCc2cc3cc4c(cc3n(CC(=O)NCc3ccccc3)c2=O)OCCO4)cc1 [Compound 2DY] gave an IC50 greater than 20 µM.
Compound COc1ccc2cc(CNc3ccc(C)cc3)c(=O)n(CC(=O)NCc3ccc(F)cc3)c2c1 [Compound 2DZ] has an IC50 greater than 20 µM.
CCOC(=O)c1ccccc1NC(=O)Cn1c(=O)c(CNc2ccc(C)cc2)cc2ccc(OC)cc21 [Compound 2D] showed an IC50 of 1 to 20 µM.
With CCc1ccc(NCc2cc3ccc(OC)cc3n(CC(=O)NCc3ccccc3)c2=O)cc1 [Compound 2EA] the IC50 was greater than 20 µM.
Compound COc1ccc2cc(CNc3ccc(C)cc3)c(=O)n(CC(=O)Nc3ccccc3Cl)c2c1 [Compound 2EB] has an IC50 greater than 20 µM.
For CCc1ccc(NCc2cc3cc(OC)c(OC)cc3n(CC(=O)Nc3ccc(C)c(C)c3)c2=O)cc1 [Compound 2EC], the IC50 was greater than 20 µM.
Compound COc1ccc2cc(CNc3ccccc3)c(=O)n(CC(=O)Nc3cccc(C)c3)c2c1 [Compound 2ED] has an IC50 greater than 20 µM.
With COc1ccc2cc(CNc3ccccc3)c(=O)n(CC(=O)Nc3cccc(C(F)(F)F)c3)c2c1 [Compound 2EE] the IC50 was greater than 20 µM.
COc1ccccc1NC(=O)Cn1c(=O)c(CNc2ccccc2)cc2cc3c(cc21)OCCO3 [Compound 2EF] showed an IC50 greater than 20 µM.
Work on COc1ccc2cc(CNc3ccccc3)c(=O)n(CC(=O)Nc3ccc4c(c3)OCCO4)c2c1 [Compound 2EG] yielded an IC50 greater than 20 µM.
Compound COc1cc2cc(CNc3ccccc3)c(=O)n(CC(=O)Nc3cccc(C)c3)c2cc1OC [Compound 2EH] has an IC50 greater than 20 µM.
COc1ccc(NC(=O)Cn2c(=O)c(CNc3ccc(C)cc3)cc3ccc(OC)cc32)cc1 [Compound 2EI] gave an IC50 greater than 20 µM.
With COc1ccc2cc(CNc3ccccc3)c(=O)n(CC(=O)Nc3ccc(F)c(F)c3)c2c1 [Compound 2EJ] the IC50 was greater than 20 µM.
CCc1ccc(NCc2cc3ccc(OC)cc3n(CC(=O)Nc3ccc(C(C)C)cc3)c2=O)cc1 [Compound 2EK] was tested, and the IC50 was greater than 20 µM.
COc1ccc2cc(CNc3ccc(C)cc3)c(=O)n(CC(=O)Nc3cccc(C)c3)c2c1 [Compound 2EL] was tested, and the IC50 was greater than 20 µM.
COc1ccc(NCc2cc3cc(OC)c(OC)cc3n(CC(=O)Nc3ccccc3C)c2=O)cc1 [Compound 2EM] gave an IC50 greater than 20 µM.
COc1ccc2cc(CNc3ccccc3)c(=O)n(CC(=O)Nc3ccc(C)cc3C)c2c1 [Compound 2EN] showed an IC50 greater than 20 µM.
With COc1ccc(NCc2cc3ccc(OC)cc3n(CC(=O)Nc3ccc(C)c(Cl)c3)c2=O)cc1 [Compound 2EO] the IC50 was greater than 20 µM.
COc1cc2cc(CNc3ccccc3)c(=O)n(CC(=O)Nc3ccccc3)c2cc1OC [Compound 2EP] was tested, and the IC50 was greater than 20 µM.
Work on O=C(Cn1c(=O)c(CNc2ccccc2)cc2cc3c(cc21)OCCO3)Nc1ccccc1 [Compound 2EQ] yielded an IC50 greater than 20 µM.
In the case of COc1ccc2cc(CNc3ccc(C)cc3)c(=O)n(CC(=O)Nc3ccc(C(C)C)cc3)c2c1 [Compound 2ER], the IC50 is reported as greater than 20 µM.
Work on COc1ccccc1NC(=O)Cn1c(=O)c(CNc2ccccc2)cc2cc(OC)c(OC)cc21 [Compound 2ES] yielded an IC50 greater than 20 µM.
With COc1ccc2cc(CNc3ccccc3)c(=O)n(CC(=O)Nc3ccc(C)cc3)c2c1 [Compound 2ET] the IC50 was greater than 20 µM.
COc1cccc(NC(=O)Cn2c(=O)c(CNc3ccc(OC)c(OC)c3)cc3ccc(C)cc32)c1 [Compound 2EU] gave an IC50 greater than 20 µM.
In the case of COc1ccc(NCc2cc3ccc(OC)cc3n(CC(=O)Nc3cccc(Cl)c3)c2=O)cc1 [Compound 2EV], the IC50 is reported as greater than 20 µM.
For COc1ccc2cc(CNc3ccccc3)c(=O)n(CC(=O)Nc3cc(F)ccc3F)c2c1 [Compound 2EW], the IC50 was greater than 20 µM.
Compound COc1ccc2cc(CNc3ccccc3)c(=O)n(CC(=O)Nc3cccc(C(C)=O)c3)c2c1 [Compound 2EX] has an IC50 greater than 20 µM.
For Cc1ccc(NCc2cc3cc4c(cc3n(CC(=O)Nc3ccc(C)cc3C)c2=O)OCCO4)cc1 [Compound 2EY], the IC50 was greater than 20 µM.
With COc1ccc2cc(CNc3ccccc3)c(=O)n(CC(=O)Nc3cccc(Cl)c3C)c2c1 [Compound 2EZ] the IC50 was greater than 20 µM.
Work on CCOc1ccc(NC(=O)Cn2c(=O)c(CNc3ccc(C)cc3)cc3ccc(OC)cc32)cc1 [Compound 2E] yielded an IC50 of 1 to 20 µM.
COc1ccc2cc(CNc3ccccc3)c(=O)n(CC(=O)Nc3cccc(SC)c3)c2c1 [Compound 2FA] gave an IC50 greater than 20 µM.
Compound CCc1ccc(NC(=O)Cn2c(=O)c(CNc3ccc(C)cc3)cc3cc(OC)c(OC)cc32)cc1 [Compound 2FB] has an IC50 greater than 20 µM.
In the case of COc1ccc2cc(CNc3ccc(C)cc3)c(=O)n(CC(=O)Nc3cc(Cl)ccc3C)c2c1 [Compound 2FC], the IC50 is reported as greater than 20 µM.
Work on COc1ccc(NCc2cc3ccc(OC)cc3n(CC(=O)Nc3cc(Cl)ccc3C)c2=O)cc1 [Compound 2FD] yielded an IC50 greater than 20 µM.
Work on COc1cc2cc(CNc3ccccc3)c(=O)n(CC(=O)Nc3ccc(C)c(C)c3)c2cc1OC [Compound 2FE] yielded an IC50 greater than 20 µM.
Compound COc1cc2cc(CNc3ccc(C)cc3)c(=O)n(CC(=O)Nc3ccccc3C)c2cc1OC [Compound 2FF] has an IC50 greater than 20 µM.
Work on O=C(Cn1c(=O)c(CNc2ccccc2)cc2cc3c(cc21)OCCO3)Nc1ccc2c(c1)OCCO2 [Compound 2FG] yielded an IC50 greater than 20 µM.
COc1cc2cc(CNc3ccc(C)cc3)c(=O)n(CC(=O)Nc3ccc(Cl)cc3)c2cc1OC [Compound 2FH] was tested, and the IC50 was greater than 20 µM.
Compound COc1ccc2cc(CNc3ccc(C)cc3)c(=O)n(CC(=O)Nc3ccc(C)c(F)c3)c2c1 [Compound 2FI] has an IC50 greater than 20 µM.
With CCc1ccccc1NC(=O)Cn1c(=O)c(CNc2ccc(C)cc2)cc2ccc(OC)cc21 [Compound 2FJ] the IC50 was greater than 20 µM.
COc1ccc2cc(CNc3ccc(OC)c(OC)c3)c(=O)n(CC(=O)Nc3cccc(C)c3)c2c1 [Compound 2FK] showed an IC50 greater than 20 µM.
CCc1cccc(NC(=O)Cn2c(=O)c(CNc3ccc(C)cc3)cc3ccc(OC)cc32)c1 [Compound 2FL] was tested, and the IC50 was greater than 20 µM.
COc1cccc(NC(=O)Cn2c(=O)c(CNc3ccccc3)cc3ccc(C)cc32)c1 [Compound 2FM] showed an IC50 greater than 20 µM.
Compound COc1ccc2cc(CNc3ccc(C)cc3)c(=O)n(CC(N)=O)c2c1 [Compound 2FN] has an IC50 greater than 20 µM.
With CCc1ccc(NCc2cc3ccc(OC)cc3n(CC(=O)Nc3cccc(F)c3)c2=O)cc1 [Compound 2FO] the IC50 was greater than 20 µM.
Work on COc1cc2cc(CNc3ccccc3)c(=O)n(CC(=O)Nc3ccc(Cl)cc3)c2cc1OC [Compound 2FP] yielded an IC50 greater than 20 µM.
In the case of Cc1ccc(C)c(NC(=O)Cn2c(=O)c(CNc3ccccc3)cc3cc4c(cc32)OCCO4)c1 [Compound 2FQ], the IC50 is reported as greater than 20 µM.
CCc1ccc(NCc2cc3ccc(OC)cc3n(CC(=O)Nc3ccc4c(c3)OCCO4)c2=O)cc1 [Compound 2FR] was tested, and the IC50 was greater than 20 µM.
COc1cc2cc(CNc3ccccc3)c(=O)n(CC(=O)Nc3ccccc3Cl)c2cc1OC [Compound 2FS] showed an IC50 greater than 20 µM.
In the case of CCc1ccc(NCc2cc3ccc(OC)cc3n(CC(=O)Nc3cccc(OC)c3)c2=O)cc1 [Compound 2FT], the IC50 is reported as greater than 20 µM.
In the case of COc1cc2cc(CNc3ccc(C)cc3)c(=O)n(CC(=O)Nc3ccccc3)c2cc1OC [Compound 2FU], the IC50 is reported as greater than 20 µM.
With COc1ccc2cc(CNc3ccc(C)cc3)c(=O)n(CC(=O)Nc3ccccc3)c2c1 [Compound 2FV] the IC50 was greater than 20 µM.
With Cc1ccc(NCc2cc3cc4c(cc3n(CC(=O)Nc3ccc(C)cc3)c2=O)OCCO4)cc1 [Compound 2FW] the IC50 was greater than 20 µM.
In the case of COc1ccc(NCc2cc3ccc(OC)cc3n(CC(=O)Nc3ccc(C)c(C)c3)c2=O)cc1 [Compound 2FX], the IC50 is reported as greater than 20 µM.
In the case of COc1cc2cc(CNc3ccc(C)cc3)c(=O)n(CC(=O)Nc3ccc(C)cc3)c2cc1OC [Compound 2FY], the IC50 is reported as greater than 20 µM.
For COc1ccc(CNC(=O)Cn2c(=O)c(CNc3ccc(C)cc3)cc3ccc(OC)cc32)cc1 [Compound 2FZ], the IC50 was greater than 20 µM.
In the case of COc1ccc(NCc2cc3ccc(C)cc3n(CC(=O)Nc3ccc(C)cc3C)c2=O)cc1OC [Compound 2F], the IC50 is reported as 1 to 20 µM.
CCc1ccc(NCc2cc3cc4c(cc3n(CC(=O)Nc3cccc(OC)c3)c2=O)OCCO4)cc1 [Compound 2GA] gave an IC50 greater than 20 µM.
In the case of CCc1ccc(NCc2cc3ccc(OC)cc3n(CC(=O)Nc3ccc(Cl)cc3)c2=O)cc1 [Compound 2GB], the IC50 is reported as greater than 20 µM.
COc1cccc(NC(=O)Cn2c(=O)c(CNc3ccc(C)cc3)cc3cc4c(cc32)OCCO4)c1 [Compound 2GC] was tested, and the IC50 was greater than 20 µM.
Work on COc1ccc(NCc2cc3cc4c(cc3n(CC(=O)Nc3ccc(C)c(C)c3)c2=O)OCCO4)cc1 [Compound 2GD] yielded an IC50 greater than 20 µM.
COc1ccc(NC(=O)Cn2c(=O)c(CNc3ccccc3)cc3ccc(C)cc32)cc1OC [Compound 2GE] was tested, and the IC50 was greater than 20 µM.
For COc1ccc2cc(CNc3ccc(C)cc3)c(=O)n(CC(=O)Nc3cccc(C(C)=O)c3)c2c1 [Compound 2GF], the IC50 was greater than 20 µM.
In the case of COc1cc2cc(CNc3ccccc3)c(=O)n(CC(=O)Nc3cc(C)cc(C)c3)c2cc1OC [Compound 2GG], the IC50 is reported as greater than 20 µM.
COc1ccc2cc(CNc3ccc(C)cc3)c(=O)n(CC(=O)Nc3cccc(SC)c3)c2c1 [Compound 2GH] was tested, and the IC50 was greater than 20 µM.
